Experimental data published in patent US11639531B2, “Composition, kit, and method for diagnosis and treatment of taxane anticancer agent-resistant cancer” (SUNGKWANG MEDICAL FOUNDATION, priority 2018, dated 2023).

Key:
Assay type in all cases: cell-based, human
HUVECs = assay: Angiogenesis (tube formation) assay (miR-150)
Method: Matrigel (BD Biosciences, California, USA) was placed into flat-bottom, 96-well plate and polymerized for 1 hour at 37° C. HUVECs incubated in M199 containing 1% FBS were harvested after trypsin treatment, resuspended in M199, plated onto the layer of Matrigel at a density of 1×10^4 cells/well, and the supernatant of SKpac-17 cells transfected by pre miR150 was added. After 24 hours, 48 hours, and 72 hours, tube formation was observed.
Cell migration and angiogenesis are important factors that influence tumor progression and metastasis. In this Example, a wound healing assay and a tube formation assay were performed to examine the effect of pre miR-150 on cell migration and the effect on angiogenesis, respectively.

SKpac cells = assay: WST (CCK-8) cell viability assay (miR-136); details: PTX-alone treatment
Method: In order to investigate the role of miR-136 in the anticancer agent-sensitivity and proliferation activity of PTX-resistant SKpac cells, cell survival rate, cell proliferation, and apoptosis analyses were performed on the SKpac cells transfected by miR-136 mimics. […] In addition, to confirm whether overexpression of miR-136 increases cell toxicity induced by PTX, degrees of apoptosis were evaluated using a TUNEL analysis. […] In collection of these experiment results, it may be known that the overexpression of miR-136, when used alone or in a combination with PTX, decreases cell viability and cell proliferation of anticancer agent-resistant ovarian cancer cells and increases apoptosis.

SKpac-17 cells = assay: Spheroid-forming assay (miR-150); details: PTX alone-treatment
Method: Spheroid-forming assays were performed to verify the effect of miR-150 on cancer stem cell activation. SKpac-17 cells were transfected with pre miR-150 or pre miR-negative. Cells were plated in Ultra-Low-Attachment Surface 6-well culture plates (Corning, Action, MA, USA) in serum-free DEME/F12 medium (Gibco/Life Technologies, Grand Island, N.Y., USA) supplemented with 20 ng/ml epidermal growth factor (Gibco, Carlsbad, Calif., USA), 10 ng/ml basic fibroblast growth factor (Sigma-Aldrich, St. Louis, Mo., USA), 0.4% bovine serum albumin (Sigma-Aldrich, St. Louis, Mo., USA), and 5 μg/mL insulin (Sigma-Aldrich, St. Louis, Mo., USA) at a density of 1000 cells/cm^2. Spheroid formation (of 50 to 100 cells per spheroid) was assessed 7 days after seeding.
In order to verify the effect of miR-150 transfection on cancer stem cells (CSCs) activation, a spheroid-forming assay was performed on paclitaxel-resistant SKpac cells in this Example, and alteration of mRNA of the stemness genes was detected using real-time RT-PCR.

[1] = system: SKpac cells (SKpac-12, SKpac-16, and SKpac-17); assay: TUNEL assay for apoptosis (miR-150); details: 48 hours
Method: TUNEL assays were performed after pre miR-150 transfection in SKpac-12 and SKpac-17. After 48 hours, apoptotic cells were analyzed using the In Situ Cell Death Detection kit (Roche, Mannheim, Germany). 2×10^7 cells were fixed with 75% ethanol for 2 hours at −20° C. The cells were washed twice with PBS and incubated with 0.1% Triton X-100 and 0.1% sodium citrate for 2 minutes on ice. After washing twice with PBS, the cells were incubated with a TUNEL-labelling mixture for 1 hour at 37° C. in the dark. The samples were washed twice with PBS and analyzed by fluorescence activated cell sorting (FACS) (Becton Dickinson, Franklin Lakes, N.J., USA).
In addition, to determine the effect of miR-150 on apoptosis, the SKpac cells (SKpac-12, SKpac-16, and SKpac-17) were transfected with pre miR-150, and then a TUNEL assay was performed on the cells. […] Collectively, the pre miR-150 transfection by itself or increased a sensitivity of tumor cells with respect to PTX and thus decreased tumor cell proliferation and induced apoptosis in PTX-resistant ovarian cancer cells.

Structure (SMILES): CC(=O)O[C@H]1C(=O)[C@@]2(C)[C@H]([C@H](OC(=O)c3ccccc3)[C@]3(O)C[C@H](OC(=O)[C@H](O)[C@@H](NC(=O)c4ccccc4)c4ccccc4)C(C)=C1C3(C)C)[C@]1(OC(C)=O)CO[C@@H]1C[C@@H]2O [PTX, paclitaxel]
- reduction effect (migration / tube formation) (HUVECs): not observed
- influence on the cell viability (SKpac cells): no influence
- spheroid formation (SKpac-17 cells): no changes
- apoptosis of the comparison treatments [1]: 3.5%
